In US20230066268A1, “INDAZOLE DERIVATIVES AND METHODS OF USE THEREOF FOR THE TREATMENT OF HERPES VIRUSES” (Merck Sharp & Dohme LLC, priority 2019, published 2023):
Read-outs that look alike come from different tables or passages of the source.

Key:
[1] = target: T1, Human cytomegalovirus DNA polymerase (Human cytomegalovirus, UniProt P08546); assay: CMV polymerase assay (AlphaLISA); type: biochemical; settings: polymerase assay of Example 27, HCMV polymerase 0.2 nM
T1 construct: made in house; host or cells: SF21 insect cells (baculovirus vector)
T1 sequence (P08546 whole entry): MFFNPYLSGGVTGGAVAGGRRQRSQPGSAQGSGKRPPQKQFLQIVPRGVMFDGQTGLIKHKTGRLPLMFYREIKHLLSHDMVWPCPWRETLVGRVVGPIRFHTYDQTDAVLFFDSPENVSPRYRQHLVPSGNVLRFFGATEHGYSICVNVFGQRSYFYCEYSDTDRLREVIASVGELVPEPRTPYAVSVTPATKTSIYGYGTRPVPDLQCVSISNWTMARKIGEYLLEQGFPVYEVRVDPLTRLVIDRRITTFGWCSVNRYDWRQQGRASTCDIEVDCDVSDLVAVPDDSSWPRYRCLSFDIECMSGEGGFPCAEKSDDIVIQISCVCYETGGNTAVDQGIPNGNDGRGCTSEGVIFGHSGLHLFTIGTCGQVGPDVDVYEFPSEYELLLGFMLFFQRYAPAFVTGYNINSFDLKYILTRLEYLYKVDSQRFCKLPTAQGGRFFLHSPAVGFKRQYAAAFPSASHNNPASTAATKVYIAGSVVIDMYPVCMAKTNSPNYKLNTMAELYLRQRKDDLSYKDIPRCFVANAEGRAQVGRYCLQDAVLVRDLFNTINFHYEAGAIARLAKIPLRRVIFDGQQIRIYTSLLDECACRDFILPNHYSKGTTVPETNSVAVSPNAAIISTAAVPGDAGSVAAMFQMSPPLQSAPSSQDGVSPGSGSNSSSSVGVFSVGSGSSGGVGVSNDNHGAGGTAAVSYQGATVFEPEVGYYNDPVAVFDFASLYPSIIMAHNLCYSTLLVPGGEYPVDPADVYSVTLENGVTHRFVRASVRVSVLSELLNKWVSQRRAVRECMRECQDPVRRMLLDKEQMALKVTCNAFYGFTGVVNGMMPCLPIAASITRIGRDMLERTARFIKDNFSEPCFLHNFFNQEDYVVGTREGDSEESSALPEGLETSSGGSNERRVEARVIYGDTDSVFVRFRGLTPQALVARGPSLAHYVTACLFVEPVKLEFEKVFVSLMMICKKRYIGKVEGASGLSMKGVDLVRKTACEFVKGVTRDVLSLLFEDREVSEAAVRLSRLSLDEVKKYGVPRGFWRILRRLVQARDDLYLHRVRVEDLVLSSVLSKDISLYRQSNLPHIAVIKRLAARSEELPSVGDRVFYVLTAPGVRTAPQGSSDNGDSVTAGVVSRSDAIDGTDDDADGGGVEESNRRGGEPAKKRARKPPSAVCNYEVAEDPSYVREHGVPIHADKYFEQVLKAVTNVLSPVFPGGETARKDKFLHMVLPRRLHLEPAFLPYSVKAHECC
Procedure: (§1) CMV and VZV Polymerase Assays
(§2) Human cytomegalovirus and varicella zoster virus DNA polymerases were expressed via baculovirus vector in SF21 cells and purified. Heterodimeric nucleic acid substrate used in the herpesvirus polymerase reactions were generated by annealing a 59-mer template to a 17-mer digoxigenin-labeled primer. Polymerase (HCMV final concentration of 0.2 nM; VZV final concentration of 0.4 nM) was combined with an inhibitor compound or DMSO in assay buffer (10 mM HEPES, pH 7.5, 25 mM KCl, 25 mM NaCl, 5 mM MgCl2, 5% glycerol, 0.67 mg/mL bovine serum albumin, and 1 mM tris(2-carboxyethyl)phosphine)), and this mixture was pre-incubated for 30 minutes at room temperature in 384-well microtiter plates. The polymerization reaction was initiated by the addition of template/primer substrate (final concentration: 1.6 nM) and dNTPs (final concentration: 24 nM dCTP, 24 nMdGTP, 16 nM dATP, 16 nM dTTP, and 0.8 nM biotin-dUTP). After a 60 minute incubation period at 37° C., the reactions were terminated using quench buffer (25 mM HEPES pH 7.5, 100 mM NaCl, 0.25% Tween-20, 12 mM EDTA, and 1 mg/mL bovine serum albumin). Incorporation of biotinylated UTP was detected with 2.5-5 μg/mL anti-DIG AlphaLISA acceptor beads and 5-10 μg/mL streptavidin AlphaLISA donor beads (PerkinElmer). Compound effects were normalized to the window defined by the controls (DMSO only and pre-quenched wells) and were fit using a 4-parameter algorithm to report an IC50.

[2] = system: HCMV Strain AD169 in MRC-5 cells; assay: CMV cell assay; type: cell-based
Procedure: (§3) MRCS and Vero cells were obtained from ATCC and were maintained at 37° C./5% CO2/90% relative humidity in Minimal Essential Medium with 10% fetal bovine serum, […], 100 units/mL penicillin and 100 ug/mL streptomycin. Assay plates were prepared by dispensing compounds dissolved in DMSO into wells of 384 well collagen-coated plates using an ECHO acoustic dispenser. Each test compound was tested in a 10-point, serial 3-fold dilution. Controls included uninfected cells and infected cells treated only with DMSO. Assays were initiated by mixing selected cells, in suspension, with virus, and dispensing 50 μl/well infected cells to pre-plated compounds. Plates were incubated at 37° C./5% CO2/90% relative humidity for ˜72 hours to permit genomic replication, and infected cells were lysed by the addition of an equal volume of lysis buffer (10 mM Tris-HCl, pH8, 50 mM KCl, 2 mM MgCl2, 0.45% NP-40, 0.45% Tween-20, and 100 μg/mL proteinase K). An aliquot of the lysate was then transferred to a 384-well PCR plate and incubated at 56° C. for 1 hour, and then at 95° C. for 10 minutes. Levels of a viral gene were measured in 10 ul qPCR assays using TaqMan® Gene Expression Master Mix (Applied Biosystems) and an 7900HT Fast Real-Time PCR System with 384-Well Block Module. 7-point, serial 10-fold dilutions of a plasmid standard were run on each plate to generate a standard curve, and genome copies numbers were calculated by plotting experimental Ct onto linear regression of the standard curve. Compound effects on viral genome copy number were normalized to the window defined by the controls. Calculated % effects were fit using a 4-parameter algorithm, and EC50 was reported.
(§4) HCMV: Strain AD169 was assayed in MRC-5 cells and was used at 0.05-0.1 pfu/cell. The assays were performed in either growth media or in the same media with 50% fetal bovine serum. Primer-probe set was Thermo Fisher Assay ID=AIFATFK. HSV-1: Strain F was assayed in Vero or MRCS cells and was used at 0.0005-0.004 pfu/cell in growth medium. Primer-probe set was Thermo Fisher Assay ID=AIBJZIB. HSV-2: Strain G was assayed in Vero or MRCS cells and was used at 0.004-0.4 pfu/cell in growth medium. Primer-probe set was Thermo Fisher Assay ID=AICSXOJ.

[3] = target: T2, varicella zoster virus DNA polymerase (Varicella-zoster virus, UniProt P09252); assay: VZV polymerase assay (AlphaLISA); type: biochemical; settings: polymerase assay of Example 27, VZV polymerase 0.4 nM
T2 construct: made in house; host or cells: SF21 insect cells (baculovirus vector)
T2 sequence (P09252 whole entry): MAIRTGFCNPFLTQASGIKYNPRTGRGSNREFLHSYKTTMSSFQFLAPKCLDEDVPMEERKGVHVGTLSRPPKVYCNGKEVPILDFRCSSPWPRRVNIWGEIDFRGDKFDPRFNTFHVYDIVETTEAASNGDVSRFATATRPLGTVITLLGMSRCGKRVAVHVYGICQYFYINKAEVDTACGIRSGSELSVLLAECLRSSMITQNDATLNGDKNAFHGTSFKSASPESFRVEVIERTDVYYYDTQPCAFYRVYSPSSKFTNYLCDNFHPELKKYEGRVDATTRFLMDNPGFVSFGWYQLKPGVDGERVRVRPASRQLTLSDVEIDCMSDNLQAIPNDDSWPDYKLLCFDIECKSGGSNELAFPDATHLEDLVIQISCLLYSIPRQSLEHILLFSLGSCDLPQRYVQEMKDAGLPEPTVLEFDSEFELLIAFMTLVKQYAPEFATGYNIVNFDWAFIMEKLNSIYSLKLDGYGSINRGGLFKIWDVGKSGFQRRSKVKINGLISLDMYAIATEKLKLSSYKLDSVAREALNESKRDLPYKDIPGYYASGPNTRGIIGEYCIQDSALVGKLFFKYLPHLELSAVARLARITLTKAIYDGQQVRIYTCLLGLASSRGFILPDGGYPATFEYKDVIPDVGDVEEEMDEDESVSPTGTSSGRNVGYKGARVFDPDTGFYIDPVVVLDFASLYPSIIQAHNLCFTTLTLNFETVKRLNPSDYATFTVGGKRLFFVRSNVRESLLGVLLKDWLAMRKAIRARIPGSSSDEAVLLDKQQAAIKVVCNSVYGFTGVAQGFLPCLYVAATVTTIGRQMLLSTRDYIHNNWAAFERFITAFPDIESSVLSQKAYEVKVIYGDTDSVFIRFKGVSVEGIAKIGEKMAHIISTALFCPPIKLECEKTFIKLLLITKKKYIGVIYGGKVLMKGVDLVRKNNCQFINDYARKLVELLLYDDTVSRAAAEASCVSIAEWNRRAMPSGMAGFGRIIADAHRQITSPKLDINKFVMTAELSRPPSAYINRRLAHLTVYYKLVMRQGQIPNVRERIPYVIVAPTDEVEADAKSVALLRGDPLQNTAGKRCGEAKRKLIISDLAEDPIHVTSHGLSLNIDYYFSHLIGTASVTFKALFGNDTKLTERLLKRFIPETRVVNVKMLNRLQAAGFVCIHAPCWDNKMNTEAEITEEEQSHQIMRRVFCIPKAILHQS
Procedure: as §1, §2

[4] = system: HSV-2 Strain G in Vero or MRCS cells; assay: Viral qPCR assay, HSV-2; type: cell-based; settings: read-out: HSV2 Cell (EC50), values marked *
Procedure: as §3, §4

[5] = system: HSV-1 Strain F in Vero or MRCS cells; assay: Viral qPCR assay, HSV-1; type: cell-based; settings: read-out: HSV1 Cell (EC50), values marked *
Procedure: as §3, §4

[6] = Human betaherpesvirus 5, AD169, MRC5, footnote b: assay described in Example 25, read-out: CMV Cell^b (EC50)
[7] = Human alphaherpesvirus 2, starred values: viral qPCR assay of Example 26, ~72 hours, Vero or MRCS cells
[8] = Human alphaherpesvirus 1, starred values: viral qPCR assay of Example 26, ~72 hours, Vero or MRCS cells

NCCn1nc(C(=O)NCc2ccc(Cl)cc2)c2ccc(NCc3cnns3)c(Cl)c21 [Compound 3]
IC50 ([1]; CMV^a (IC50)): 0.0096 µM
EC50 ([2]; Human betaherpesvirus 5, AD169, MRC5, read-out: CMV Cell^b (EC50), footnote b: assay described in Example 25): 0.071 µM
IC50 ([3]; VZV^a (IC50)): 0.0029 µM
EC50 ([4]; Human alphaherpesvirus 2, Vero, 72 h): 0.17 µM
EC50 ([5]; Human alphaherpesvirus 1, Vero, 72 h): 0.085 µM

Cn1nc(C(=O)NCc2ccc(Cl)cc2)c2c3c(ccc21)C(N1CCOCC1)CC3 (centres unmarked) [Compound 17]
IC50 ([1]; read-out: CMV^a (IC50)): 0.15 µM
EC50 [2, 6]: 1 µM
IC50 ([3]; read-out: VZV^a (IC50)): 0.014 µM
EC50 [4, 7]: 0.35 µM
EC50 [5, 8]: 0.31 µM

Cn1nc(C(=O)NCc2ccc(Cl)cc2)c2cc(C[C@H]3COC(=O)N3)ccc21 [Compound 33]
IC50 ([1]; read-out: CMV^a (IC50)): 0.078 µM
EC50 [2, 6]: 0.16 µM
IC50 ([3]; read-out: VZV^a (IC50)): 0.035 µM
EC50 [4, 7]: 0.11 µM
EC50 [5, 8]: 0.2 µM

Cn1nc(C(=O)NCc2ccc(Cl)cc2)c2cc(C[C@H]3CCC(=O)N3)ccc21 [Compound 34]
IC50 ([1]; read-out: CMV^a (IC50)): 0.067 µM
EC50 [2, 6]: 0.33 µM
IC50 ([3]; read-out: VZV^a (IC50)): 0.024 µM
EC50 [4, 7]: 0.24 µM
EC50 [5, 8]: 0.22 µM
